Source: patent US10793525B2, “13-cis-RAMBA retinamides that degrade MNKs for treating cancer” (UNIVERSITY OF MARYLAND, BALTIMORE, priority 2014, dated 2020)
Where two headings read alike, the source gives them in different places.

What was measured:
[1] = system: MCF-7 human breast cancer cells; test: MTT cell proliferation assay, MCF-7; assay type: cell-based; details: MCF-7 cells; for IC50: Homo sapiens, MCF7, MTT, SEM < 10%, read-out: GI50s MCF-7
Excerpt: (§1) MCF-7, MDA-MB-231, MDA-MB-468 and SKBR-3 human breast cancer cells and LNCaP, PC-3, and CWR22Rv1 human prostate carcinoma cells (American Type Culture Collection, Manassas, Va., USA) were maintained in RPMI 1640 media (Gibco-Life Technologies, Grand Island, N.Y., USA) supplemented with 10% fetal bovine serum and 1% penicillin/streptomycin. Western blotting was done as mentioned previously,^8, 13b using the following antibodies: AR, Bad, Bax, Bcl-2, eIF4E, Mnk1, Mnk-2, N-cadherin, PARP, peIF4E^ser209 purchased from Cell Signaling Technology, Danvers, Mass., USA. Anti-Mnk2 was purchased from Sigma-Aldrich and normal rabbit IgG, cyclin D1 was from Santa Cruz Biotechnology, CA, USA.
(§2) Cells were plated (2500 cells/well) in 96 well plates and treated with or without specified compounds as described previously.^8a, 12b
(§3) The clinically relevant retinoids, ATRA and 4-HPR and the Mnk inhibitor, cercosporamide were used as comparators in the assays.

[2] = system: MDA-MB-468 human breast cancer cells; test: MTT cell proliferation assay, MDA-MB-468; assay type: cell-based; details: MDA-MB-468 cells, SEM < 10%, read-out: GI50s MDA-MB-468
Excerpt: as §1, §2, §3

[3] = system: MDA-MB-231 human breast cancer cells; test: MTT cell proliferation assay, MDA-MB-231; assay type: cell-based; details: MDA-MB-231 cells, SEM < 10%, read-out: GI50s MDA-MB-231
Excerpt: as §1, §2, §3

[4] = system: SKBR-3 human breast cancer cells; test: MTT cell proliferation assay, SKBR-3; assay type: cell-based; details: SK-BR-3, SKBR-3 cells, SEM < 10%, read-out: GI50s SKBR-3
Excerpt: as §1, §2, §3

[5] = system: CWR22Rv1 human prostate carcinoma cells; details: previously reported in Ramamurthy V et al., read-out: GI50s CWR22Rv1; cited from earlier work
[6] = system: LNCaP human prostate carcinoma cells; details: previously reported in Ramamurthy V et al., read-out: GI50s LNCaP; cited from earlier work
[7] = system: PC-3 human prostate carcinoma cells; details: PC-3 cells; previously reported in Ramamurthy V et al.; read-out: GI50s PC-3; cited from earlier work
[8] = system: MCF-7, MDA-MB-231, MDA-MB-468 and SKBR-3 human breast cancer cells; test: MTT cell proliferation assay, four breast cancer cell lines together; assay type: cell-based; details: range across the four BC cell lines, read-out: GI50s, range over the BC cell lines
Excerpt: as §1, §2, §3

[9] = system: LNCaP human prostate carcinoma cells; test: MTT cell proliferation assay, LNCaP; assay type: cell-based; details: SEM < 10%, read-out: GI50s LNCaP
Excerpt: as §1, §2, §3
(§4) The PC-3 cell line was the least sensitive to all the compounds tested.

[10] = system: PC-3 human prostate carcinoma cells; test: MTT cell proliferation assay, PC-3; assay type: cell-based; details: PC-3 cells, SEM < 10%, read-out: GI50s PC-3
Excerpt: as §1, §2, §3, §4

[11] = system: CWR22Rv1 human prostate carcinoma cells; test: MTT cell proliferation assay, CWR22Rv1; assay type: cell-based; details: SEM < 10%, read-out: GI50s CWR22Rv1
Excerpt: as §1, §2, §3, §4

| SMILES | melting point [°C] | IC50 [1] [µM] | IC50 [2] [µM] | IC50 [3] [µM] | IC50 [4] [µM] | IC50 [5] [µM] | IC50 [6] [µM] | IC50 [7] [µM] | IC50 [8] [µM] | IC50 [9] [µM] | IC50 [10] [µM] | IC50 [11] [µM] | fold more potent than Compound 16 (GI50, MCF-7) ([1]; versus Compound 16) [fold] |
| --- | --- | --- | --- | --- | --- | --- | --- | --- | --- | --- | --- | --- | --- |
| CC1=C(/C=C/C(C)=C/C=C/C(C)=C\C(=O)NCc2ccc(O)cc2)C(C)(C)CC=C1c1cccnc1 [Compound 36, (2Z,4E,6E,8E)-N-(4-hydroxybenzyl)-3,7-dimethyl-9-(2,6,6-trimethyl-3-(pyridin-3-yl)cyclohexa-1,3-dien-1-yl)nona-2,4,6,8-tetraenamide] | 124 to 126 | – | – | – | – | – | – | – | – | – | – | – | – |
| CC1=C(/C=C/C(C)=C/C=C/C(C)=C\C(=O)Nc2ccccc2)C(C)(C)CC=C1c1cccnc1 [Compound 35, (2Z,4E,6E,8E)-3,7-dimethyl-N-phenyl-9-(2,6,6-trimethyl-3-(pyridin-3-yl)cyclohexa-1,3-dien-1-yl)nona-2,4,6,8-tetraenamide] | – | 8.32 | 39.8 | 25.1 | 47.4 | – | – | – | – | – | – | – | – |
| CC1=C(/C=C/C(C)=C/C=C/C(C)=C\C(=O)NCc2ccc(F)cc2)C(C)(C)CCC1n1ccnc1 (stereo not drawn) [Compound 23, (2Z,4E,6E,8E)-9-(3-(1H-imidazol-1-yl)-2,6,6-trimethylcyclohex-1-en-1-yl)-N-(4-fluorobenzyl)-3,7-dimethylnona-2,4,6,8-tetraenamide] | 93 to 95 | 1.93 | 2.45 | 1.41 | 5.5 | – | – | – | – | – | – | – | – |
| CC1=C(/C=C/C(C)=C/C=C/C(C)=C\C(=O)NCc2cccc(F)c2)C(C)(C)CCC1n1ccnc1 (stereo not drawn) [Compound 24, (2Z,4E,6E,8E)-9-(3-(1H-imidazol-1-yl)-2,6,6-trimethylcyclohex-1-en-1-yl)-N-(3-fluorobenzyl)-3,7-dimethylnona-2,4,6,8-tetraenamide] | – | 1.81 | 2.45 | 1.65 | 5.5 | – | – | – | – | – | – | – | – |
| CC1=C(/C=C/C(C)=C/C=C/C(C)=C/C(=O)Nc2ccc(O)cc2)C(C)(C)CCC1 [Compound 4-HPR, N-(4-hydroxyphenyl) retinamide, reference compound] | – | 4.65 | 6.02 | 11.1 | 3.98 | 3.23 | 2.69 | 3.54 | – | – | – | – | – |
| CC1=C(/C=C/C(C)=C/C=C/C(C)=C\C(=O)NCc2ccccc2)C(C)(C)CCC1n1ccnc1 (stereo not drawn) [Compound 21, (2Z,4E,6E,8E)-9-(3-(1H-imidazol-1-yl)-2,6,6-trimethylcyclohex-1-en-1-yl)-N-benzyl-3,7-dimethylnona-2,4,6,8-tetraenamide] | – | 9.77 | 7.24 | 5.88 | 10.7 | – | – | – | 5.88 to 10.7 | – | – | – | – |
| CC1=C(/C=C/C(C)=C/C=C/C(C)=C\C(=O)Nc2ccccc2O)C(C)(C)CCC1n1ccnc1 (stereo not drawn) [Compound 18, (2Z,4E,6E,8E)-9-(3-(1H-imidazol-1-yl)-2,6,6-trimethylcyclohex-1-en-1-yl)-N-(2-hydroxyphenyl)-3,7-dimethylnona-2,4,6,8-tetraenamide] | – | 1.09 | 3.03 | 4.67 | 3.89 | – | – | – | – | 3.23 | 15.5 | 2.23 | – |
| CC1=C(/C=C/C(C)=C/C=C/C(C)=C\C(=O)NCc2ccc(O)cc2)C(C)(C)CC=C1c1cncnc1 [Compound 39, (2Z,4E,6E,8E)-N-(4-hydroxybenzyl)-3,7-dimethyl-9-(2,6,6-trimethyl-3-(pyrimidin-5-yl)cyclohexa-1,3-dien-1-yl)nona-2,4,6,8-tetraenamide] | 145 to 147 | 4.96 | 19.1 | 11.5 | 11.5 | – | – | – | – | – | – | – | – |
| CC1=C(/C=C/C(C)=C/C=C/C(C)=C\C(=O)NCCc2ccc(O)cc2)C(C)(C)CCC1n1ccnc1 (stereo not drawn) [Compound 25, (2Z,4E,6E,8E)-9-(3-(1H-imidazol-1-yl)-2,6,6-trimethylcyclohex-1-en-1-yl)-N-(4-hydroxyphenethyl)-3,7-dimethylnona-2,4,6,8-tetraenamide] | 126 to 128 | 1.9 | 13.5 | 2.88 | 1.41 | – | – | – | – | – | – | – | – |
| CC1=C(/C=C/C(C)=C/C=C/C(C)=C\C(=O)NCCc2ccc(O)cc2)C(C)(C)CC=C1c1cccnc1 [Compound 37, (2Z,4E,6E,8E)-N-(4-hydroxyphenethyl)-3,7-dimethyl-9-(2,6,6-trimethyl-3-(pyridin-3-yl)cyclohexa-1,3-dien-1-yl)nona-2,4,6,8-tetraenamide] | 110 to 112 | 8.75 | 50.1 | 26.9 | 42.2 | – | – | – | – | – | – | – | – |
| CC1=C(/C=C/C(C)=C/C=C/C(C)=C\C(=O)Nc2ccccc2)C(C)(C)CC=C1c1cncnc1 [Compound 38, (2Z,4E,6E,8E)-3,7-dimethyl-N-phenyl-9-(2,6,6-trimethyl-3-(pyrimidin-5-yl)cyclohexa-1,3-dien-1-yl)nona-2,4,6,8-tetraenamide] | 105 to 107 | 7.01 | 22.9 | 26.9 | 31 | – | – | – | – | – | – | – | – |
| CC1=C(/C=C/C(C)=C/C=C/C(C)=C\C(=O)Nc2ccc(O)cc2)C(C)(C)CCC1n1ccnc1 (stereo not drawn) [Compound 17, (2Z,4E,6E,8E)-9-(3-(1H-imidazol-1-yl)-2,6,6-trimethylcyclohex-1-en-1-yl)-N-(4-hydroxyphenyl)-3,7-dimethylnona-2,4,6,8-tetraenamide] | – | 1.99 | 6.83 | 13.1 | 3.89 | – | – | – | – | 3.54 | 11.7 | 3.89 | – |
| CC(O)(CS(=O)(=O)c1ccc(F)cc1)C(=O)Nc1ccc(C#N)c(C(F)(F)F)c1 (stereo not drawn) [Casodex] | – | – | – | – | – | 3.81 | 2.61 | 9.15 | – | – | – | – | – |
| CC1=C(/C=C/C(C)=C/C=C/C(C)=C\C(=O)NCCc2ccc(O)cc2)C(C)(C)CC=C1c1cncnc1 [Compound 40, (2Z,4E,6E,8E)-N-(4-hydroxyphenethyl)-3,7-dimethyl-9-(2,6,6-trimethyl-3-(pyrimidin-5-yl)cyclohexa-1,3-dien-1-yl)nona-2,4,6,8-tetraenamide] | 115 to 117 | 2.96 | 23.4 | 14.5 | 24 | – | – | – | – | – | – | – | – |
| CC1=C(/C=C/C(C)=C/C=C/C(C)=C\C(=O)Nc2ccc(F)cc2)C(C)(C)CCC1n1ccnc1 (stereo not drawn) [Compound 19, (2Z,4E,6E,8E)-9-(3-(1H-imidazol-1-yl)-2,6,6-trimethylcyclohex-1-en-1-yl)-N-(4-fluorophenyl)-3,7-dimethylnona-2,4,6,8-tetraenamide] | – | 0.4 | 4.57 | 4.95 | 25.1 | – | – | – | – | 3.89 | 30.2 | – | ~4.8 |
